Drawing on patent publication US10940139B2, “Compounds that interact with the Ras superfamily for the treatment of cancers, inflammatory diseases, rasopathies, and fibrotic disease” (Shy Therapeutics LLC, priority 2017, dated 2021), this text covers inhibition for 56 molecules.

In assay [1] the test system is TNFα production in RAW 264.7 macrophage cell line. Nature of the assay: Mouse TNF alpha quantification assay (LPS-stimulated macrophages, ELISA). The format is cell-based. Particulars: RAW264.7, RAW 264.7 murine leukemia virus transformed macrophage cell lines, LPS stimulation, read-out: TNF-α % Inhibition at 30 μM.
Assay [2] deals with IL6 production in RAW 264.7 macrophage cell line. Put plainly: Mouse IL6 quantification assay (LPS-stimulated macrophages, ELISA). The format is cell-based. Particulars: RAW264.7, RAW 264.7 murine leukemia virus transformed macrophage cell lines, LPS stimulation, read-out: IL-6 % Inhibition at 30 μM. (ELISA stands for enzyme-linked immunosorbent assay.)

One may read the inhibition as the relative decrease from the control value, in per cent.

Consider `COc1cnc(CNC(=O)c2csc3nc(-c4ccccn4)nc(N)c23)[nH]c1=O` [drawing 2344], for which the inhibition at 30 µM in assay [1] and in assay [2] was 1 to 25% throughout.

Consider `COc1ccc(CCC(=O)Nc2nnc(-c3ccccn3)[nH]2)cc1F` [drawing 1929], for which the figures for the inhibition at 30 µM in assay [1] and in assay [2] were 26 to 50% and 1 to 25%, respectively.

Turning to `Oc1nc(-c2ccccn2)nc2c(-c3cccc4c3OCO4)csc12` [drawing 2242], the inhibition at 30 µM in assay [1] and in assay [2] was 51 to 75% each time.

For the molecule `Oc1nc(-c2ccccn2)nc2c(C3CCC3)csc12` [drawing 2316], the inhibition at 30 µM in assay [1] and in assay [2] was 76 to 100% in each case.

As for `O=C(c1csc2c(O)nc(-c3ccccn3)nc12)N1CCN(c2ccc(O)c(Cl)c2)CC1` [drawing 2214], the inhibition at 30 µM in assay [1] was 0%; in assay [2], 26 to 50%.

Consider `Cc1sc2c(O)nc(-c3ccccn3)nc2c1Br` [drawing 2349], for which the inhibition at 30 µM in assay [1] was 0%; in assay [2] it was 26 to 50%.

With `Oc1nc(-c2ccccn2)nc(Oc2cccc(C(F)(F)F)c2)c1O` [drawing 2385], the inhibition at 30 µM in assay [1] and in assay [2] was 1 to 25% throughout.

Consider `CC1CCN(C(=O)c2csc3c(O)nc(-c4ccccn4)nc23)CC1` [drawing 2101], for which the values for the inhibition at 30 µM in assay [1] and in assay [2] were 0% and 26 to 50%, respectively.

On to `COC(=O)c1csc2nc(-c3ccccn3)nc(N)c12` [drawing 2287], for which the inhibition at 30 µM in assay [1] is 0%; in assay [2], 51 to 75%.

For the molecule `CNC(=O)c1ccc(-c2csc3c(O)nc(-c4ccccn4)nc23)cc1C` [drawing 2277], the inhibition at 30 µM in assay [1] is 0%; in assay [2], 26 to 50%.

As for `O=C(Cn1c(=O)[nH]c2ccccc21)Nc1nnc(-c2ccccn2)[nH]1` [drawing 1987], the inhibition at 30 µM in assay [1] and in assay [2] was 1 to 25% each time.

In the case of `O=c1nc(-c2ccccn2)[nH]c2c1sc1ccccc12` [drawing 2030], the inhibition at 30 µM in assay [1] and in assay [2] was 76 to 100% in each case.

In the case of `O=C(CN1CCN(c2nc(-c3ccccn3)nc3scc(-c4ccccc4)c23)CC1)N1CCCC1` [drawing 2157], the inhibition at 30 µM in assay [1] and in assay [2] was 1 to 25% in each case.

For `Cc1ccc(O)c(CN(C)Cc2nccn2Cc2ccccc2)n1` [drawing 2050], the inhibition at 30 µM in assay [1] was 0%; in assay [2] it was 1 to 25%.

In the case of `COc1ccc(N2CCN(C(=O)c3csc4c(O)nc(-c5ccccn5)nc34)CC2)cc1O` [drawing 2213], the inhibition at 30 µM in assay [1] was 0%; in assay [2] it was 26 to 50%.

`O=S1(=O)CCC(Nc2nc(-c3ccccn3)nc3scc(-c4ccccc4)c23)C1` (stereo not shown) [drawing 2152]: the results for the inhibition at 30 µM in assay [1] and in assay [2] were 0% and 1 to 25%, respectively.

Turning to `Cn1nnc2ccc(-c3csc4c(O)nc(-c5ccccn5)nc34)cc21` [drawing 2253], the inhibition at 30 µM was in the range of 1 to 25% in assay [1] and 76 to 100% in assay [2].

On to `Cn1ccnc1-c1nc(O)c2scc(-c3ccccc3Cl)c2n1` [drawing 2442], for which the inhibition at 30 µM in assay [1] was 1 to 25%; in assay [2], 51 to 75%.

As to `COC(=O)c1cccc(CN2CCC(CSc3ccccc3)C2)c1C#N` (stereo not shown) [drawing 2046], the inhibition at 30 µM is 0% in assay [1] and 26 to 50% in assay [2].

As to `CCOCCC1CCN(C(=O)c2csc3c(O)nc(-c4ccccn4)nc23)CC1` [drawing 2103], the inhibition at 30 µM in assay [1] was 1 to 25%; in assay [2], 76 to 100%.

On to `O=C(Cc1ccc(F)cc1)Nc1nnc(-c2ccccn2)[nH]1` [drawing 1970], for which the inhibition at 30 µM in assay [1] and in assay [2] was 1 to 25% in each case.

In the case of `CN(Cc1cnn(C)c1)c1nc(-c2ccccn2)nc2scc(-c3ccccc3)c12` [drawing 2141], the results for the inhibition at 30 µM in assay [1] and in assay [2] were 26 to 50% and 76 to 100%, respectively.

Regarding `COc1cnc(CNC(=O)c2c(C)sc3c(O)nc(-c4ccccn4)nc23)[nH]c1=O` [drawing 2350], the inhibition at 30 µM in assay [1] was 1 to 25%; in assay [2], 0%.

Turning to `COC(=O)c1ccc(C(=O)NCC2(c3ccccc3OC)CCCC2)nc1` [drawing 2058], the values for the inhibition at 30 µM in assay [1] and in assay [2] were 1 to 25% and 0%, respectively.

For the molecule `O=C(COc1ccccc1)N1CCCc2c(O)nc(-c3ccccn3)nc21` [drawing 2071], the inhibition at 30 µM lay within 1 to 25% in assay [1] and 76 to 100% in assay [2].

With `CCOCCOc1nc(-c2nccn2C)nc2sc(-c3ccccc3)c(-c3ccccc3)c12` [drawing 2399], the inhibition at 30 µM in assay [1] lay in the range of 26 to 50%; in assay [2] it was 1 to 25%.

Regarding `COc1ccc(N2CCN(C(=O)c3csc4c(O)nc(-c5ccccn5)nc34)CC2)c(OC)c1` [drawing 2184], the inhibition at 30 µM is 0% in assay [1] and 76 to 100% in assay [2].

Regarding `O=C(COCCOc1ccccc1)Nc1nnc(-c2ccccn2)[nH]1` [drawing 2005], the inhibition at 30 µM is 1 to 25% in assay [1] and 0% in assay [2].

For the molecule `Cc1c(Br)sc2c(O)nc(-c3ccccn3)nc12` [drawing 2312], the inhibition at 30 µM lay in the range of 51 to 75% in assay [1] and 76 to 100% in assay [2].

On to `O=C(c1csc2c(O)nc(-c3ccccn3)nc12)N1CCN(Cc2ccc(O)cc2)CC1` [drawing 2189], for which the inhibition at 30 µM in assay [1] and in assay [2] was 1 to 25% in each case.

For `Oc1nc(-c2ccccn2)nc2c(-c3ccccc3OC3CCCCC3)csc12` [drawing 2258], the inhibition at 30 µM is 26 to 50% in assay [1] and 76 to 100% in assay [2].

`O=C(c1ccc(=O)[nH]n1)N1CCCc2c(O)nc(-c3ccccn3)nc21` [drawing 2078]: the inhibition at 30 µM in assay [1] was in the range of 1 to 25%; in assay [2], 76 to 100%.

Consider `Oc1nc(-c2ccccn2)nc2c(CC3CNC3)csc12` [drawing 2346], for which the inhibition at 30 µM in assay [1] was 1 to 25%; in assay [2], 76 to 100%.

In the case of `O=C(NCCc1ccc(O)c(O)c1)c1csc2nc(-c3ccccn3)nc(N3CCOCC3)c12` [drawing 2204], the inhibition at 30 µM in assay [1] was 0%; in assay [2], 1 to 25%.

Consider `O=C(O)c1cc2nc(-c3ccccn3)nc(O)c2s1` [drawing 2243], for which the inhibition at 30 µM in assay [1] and in assay [2] was 1 to 25% throughout.

With `O=c1nc(-c2ccccn2)[nH]c2sc(-c3ccccc3)cc12` [drawing 2028], the figures for the inhibition at 30 µM in assay [1] and in assay [2] were 76 to 100% and 51 to 75%, respectively.

As to `O=S(=O)(CCc1ccccc1)N1CCCc2c(O)nc(-c3ccccn3)nc21` [drawing 2083], the values for the inhibition at 30 µM in assay [1] and in assay [2] were 0% and 26 to 50%, respectively.

With `Oc1nc(-c2ccccn2)nc2c(Br)csc12` [drawing 2100], the inhibition at 30 µM in assay [1] and in assay [2] was 76 to 100% in each case.

Consider `CC(C)(C)c1sc2c(O)nc(-c3ccccn3)nc2c1Br` [drawing 2381], for which the results for the inhibition at 30 µM in assay [1] and in assay [2] were 1 to 25% and 0%, respectively.

Turning to `COc1cccc(COCC(=O)Nc2nnc(-c3ccccn3)[nH]2)c1` [drawing 1985], the inhibition at 30 µM in assay [1] lay in the range of 1 to 25%; in assay [2], 26 to 50%.

`Oc1nc(-c2ccccn2)nc2cc(-c3ccc(-c4ccccc4)cc3)sc12` [drawing 2386]: the inhibition at 30 µM in assay [1] was 1 to 25%; in assay [2] it was 51 to 75%.

As to `CCCOc1ccc2ccccc2c1CN(C)S(=O)(=O)N1CC(C)OC(C)C1` (stereo not shown) [drawing 2061], the inhibition at 30 µM is 51 to 75% in assay [1] and 1 to 25% in assay [2].

For `COCCN(CCOC)c1nc(-c2ccccn2)nc2scc(C(=O)NCCc3ccc(OC)nc3)c12` [drawing 2206], the inhibition at 30 µM in assay [1] was 0%; in assay [2], 1 to 25%.

As to `N#Cc1ccc(COCC(=O)Nc2nc(-c3ccccn3)nc3sccc23)cc1` [drawing 2211], the inhibition at 30 µM in assay [1] lay within 1 to 25%; in assay [2], 51 to 75%.

Take `Oc1nc(-c2ccccn2)nc2c(Br)c(-c3ccccc3)sc12` [drawing 2380]: the inhibition at 30 µM in assay [1] was 0%; in assay [2], 1 to 25%.

As for `CC(Oc1ccc(C#N)cc1)C(=O)Nc1nnc(-c2ccccn2)[nH]1` (stereo not shown) [drawing 1977], the inhibition at 30 µM in assay [1] and in assay [2] was 1 to 25% each time.

Regarding `O=C(Nc1nnc(-c2ccccn2)[nH]1)c1cccc(N2CCCS2(=O)=O)c1` [drawing 1989], the inhibition at 30 µM in assay [1] and in assay [2] was 1 to 25% each time.

With `Cc1sc2c(O)nc(-c3ccccn3)nc2c1C(=O)N1CCN(Cc2cccc(O)c2)CC1` [drawing 2334], the inhibition at 30 µM in assay [1] is 0%; in assay [2] it was 26 to 50%.

In the case of `Oc1nc(-c2ccccn2)nc2c(-c3ccccc3Cl)csc12` [drawing 2121], the inhibition at 30 µM in assay [1] and in assay [2] was 76 to 100% throughout.

`O=C(OCCc1ccccc1)N1CCCc2c(O)nc(-c3ccccn3)nc21` [drawing 2085]: the inhibition at 30 µM fell in the range of 26 to 50% in assay [1] and 76 to 100% in assay [2].

As for `Oc1cccc(-c2csc3c(O)nc(-c4ccccn4)nc23)n1` [drawing 2320], the inhibition at 30 µM in assay [1] is 0%; in assay [2], 51 to 75%.

Turning to `CC(C)Oc1cnc(-c2ccccn2)nc1O` [drawing 2319], the inhibition at 30 µM in assay [1] lay within 1 to 25%; in assay [2] it was 76 to 100%.

Regarding `Nc1nc(O)c2sc(-c3cccc(C(=O)NCc4ncc[nH]4)c3)cc2n1` [drawing 2372], the inhibition at 30 µM in assay [1] and in assay [2] was 0% throughout.

For `COCCN(C)c1nc(-c2nccn2C)nc2sc(-c3ccccc3)c(-c3ccccc3)c12` [drawing 2393], the inhibition at 30 µM in assay [1] and in assay [2] was 76 to 100% throughout.

Consider `Cc1sc2c(O)nc(-c3ccccn3)nc2c1C(=O)N1CCN(c2ccccc2)CC1C` (stereo not shown) [drawing 2333], for which the inhibition at 30 µM in assay [1] was 0%; in assay [2] it was 1 to 25%.

On to `CC(CC(=O)N1CCOCC1)c1nc(-c2ccccn2)nc2scc(-c3ccccc3)c12` (stereo not shown), for which the inhibition at 30 µM in assay [1] and in assay [2] was 1 to 25% each time.
